IC50 data for 21 compounds are collected here from US10189845B2, “4,6-substituted-pyrazolo[1,5-a]pyrazines as janus kinase inhibitors” (ARRAY BIOPHARMA INC., priority 2014, dated 2019).

Format in all cases: biochemical
For one experiment, the target named is JAK2 (Homo sapiens (Human), UniProt O60674). Nature of the experiment: JAK2 Inhibition Assay (Example C, Omnia kinase fluorescence peptide substrate assay). The note with it: JAK2 Enzyme IC50 1 mM ATP, averaged IC50 ranges. In a few lines: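 Kinetic fluorescence read of Omnia Y7 peptide (10 μM) phosphorylation, ex 360/em 485 nm every 50 s over 45 min, by 4 nM JAK2 at 1 mM ATP. Buffer 25 mM HEPES pH 7.4, 10 mM MgCl2, 0.01% Triton X-100, 1 mM DTT; final DMSO 2%. Percent-of-control values fitted by 4-parameter logistic for IC50.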
JAK2, sequence (O60674 whole entry): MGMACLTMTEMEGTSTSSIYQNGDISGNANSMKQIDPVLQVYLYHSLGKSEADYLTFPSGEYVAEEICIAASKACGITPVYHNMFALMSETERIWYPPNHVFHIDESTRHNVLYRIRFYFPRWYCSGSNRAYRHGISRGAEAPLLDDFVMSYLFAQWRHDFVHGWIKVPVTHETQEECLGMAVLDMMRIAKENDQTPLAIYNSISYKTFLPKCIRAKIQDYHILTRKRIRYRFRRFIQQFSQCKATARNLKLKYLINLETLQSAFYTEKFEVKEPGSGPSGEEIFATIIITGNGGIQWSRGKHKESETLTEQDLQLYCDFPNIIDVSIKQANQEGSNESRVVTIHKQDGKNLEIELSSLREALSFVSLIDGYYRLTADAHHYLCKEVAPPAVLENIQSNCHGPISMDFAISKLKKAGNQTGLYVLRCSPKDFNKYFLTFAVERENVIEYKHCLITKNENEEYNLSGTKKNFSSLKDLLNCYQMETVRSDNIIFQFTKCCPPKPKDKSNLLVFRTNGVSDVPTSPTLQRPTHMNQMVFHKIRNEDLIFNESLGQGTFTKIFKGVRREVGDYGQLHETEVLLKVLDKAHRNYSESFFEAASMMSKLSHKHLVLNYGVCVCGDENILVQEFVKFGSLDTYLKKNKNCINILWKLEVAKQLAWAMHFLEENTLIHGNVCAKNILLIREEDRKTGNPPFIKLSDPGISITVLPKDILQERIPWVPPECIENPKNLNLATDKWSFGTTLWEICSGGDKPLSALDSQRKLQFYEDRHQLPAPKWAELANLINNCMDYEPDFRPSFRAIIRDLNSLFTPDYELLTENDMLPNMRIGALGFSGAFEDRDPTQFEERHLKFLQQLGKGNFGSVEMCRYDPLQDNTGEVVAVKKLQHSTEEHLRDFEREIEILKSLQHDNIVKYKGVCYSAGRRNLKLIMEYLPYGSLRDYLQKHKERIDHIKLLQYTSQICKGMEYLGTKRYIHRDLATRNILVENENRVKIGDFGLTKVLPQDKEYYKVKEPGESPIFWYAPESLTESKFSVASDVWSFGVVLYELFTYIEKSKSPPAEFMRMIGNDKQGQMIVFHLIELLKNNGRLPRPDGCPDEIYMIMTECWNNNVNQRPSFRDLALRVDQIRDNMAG

Another experiment addresses JAK1 (Homo sapiens (Human), UniProt P23458). Nature of the experiment: JAK1 Inhibition Assay (Example B, Omnia kinase fluorescence peptide substrate assay). In a few lines: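 Kinetic fluorescence read (360 nm excitation, 485 nm emission, every 50 s over 45 min) of Omnia Y12 peptide (8 μM) phosphorylation by 12.5 nM human JAK1 at 1 mM ATP. Buffer: HEPES pH 7.4, MgCl2, Triton X-100, DTT; 2% DMSO. IC50 = concentration giving 50 POC on logistic curve.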

Another experiment deals with JAK3 (Homo sapiens (Human), UniProt P52333). Briefly: JAK3 Inhibition Assay (Example D, Omnia kinase fluorescence peptide substrate assay). In a few lines: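 Omnia Sox-peptide kinetic read (ex 360 nm, em 485 nm, every 50 s over 45 min) tracked phosphorylation of 10 μM Y7 peptide by 2 nM recombinant JAK3 at 1 mM ATP. Buffer: 25 mM HEPES pH 7.4, 10 mM MgCl2, 0.01% Triton X-100, 1 mM DTT, with 2% DMSO final.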
JAK3, sequence (P52333 whole entry): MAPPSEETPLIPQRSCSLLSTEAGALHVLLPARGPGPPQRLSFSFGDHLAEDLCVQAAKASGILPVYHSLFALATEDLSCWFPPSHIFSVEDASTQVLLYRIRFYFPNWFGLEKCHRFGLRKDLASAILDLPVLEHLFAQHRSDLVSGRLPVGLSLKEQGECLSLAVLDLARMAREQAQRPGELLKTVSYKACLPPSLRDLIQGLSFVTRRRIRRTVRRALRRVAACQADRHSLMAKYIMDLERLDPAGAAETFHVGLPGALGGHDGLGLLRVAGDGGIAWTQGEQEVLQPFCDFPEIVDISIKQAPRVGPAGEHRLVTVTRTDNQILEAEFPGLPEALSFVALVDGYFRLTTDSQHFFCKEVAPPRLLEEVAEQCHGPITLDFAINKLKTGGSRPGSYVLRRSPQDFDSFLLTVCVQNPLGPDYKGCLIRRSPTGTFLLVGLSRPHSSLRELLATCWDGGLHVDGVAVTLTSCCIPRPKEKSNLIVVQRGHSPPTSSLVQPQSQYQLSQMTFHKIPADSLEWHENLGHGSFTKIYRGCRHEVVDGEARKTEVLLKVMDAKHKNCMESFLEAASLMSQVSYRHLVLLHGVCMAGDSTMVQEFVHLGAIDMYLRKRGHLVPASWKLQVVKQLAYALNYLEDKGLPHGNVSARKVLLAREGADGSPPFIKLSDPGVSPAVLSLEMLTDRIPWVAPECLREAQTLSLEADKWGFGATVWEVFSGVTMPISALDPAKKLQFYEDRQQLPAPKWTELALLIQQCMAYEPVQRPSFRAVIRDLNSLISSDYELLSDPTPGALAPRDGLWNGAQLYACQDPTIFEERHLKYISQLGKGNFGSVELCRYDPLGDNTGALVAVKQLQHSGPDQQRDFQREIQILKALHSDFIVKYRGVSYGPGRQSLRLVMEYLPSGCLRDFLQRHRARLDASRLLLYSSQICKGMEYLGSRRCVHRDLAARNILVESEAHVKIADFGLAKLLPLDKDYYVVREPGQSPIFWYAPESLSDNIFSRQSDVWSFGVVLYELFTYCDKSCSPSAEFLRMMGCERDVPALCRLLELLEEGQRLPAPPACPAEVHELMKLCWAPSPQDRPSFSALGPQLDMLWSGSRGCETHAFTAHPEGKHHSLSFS

A further experiment addresses Human Tyk2 kinase domain (Homo sapiens (Human), UniProt P29597). Briefly: Tyk2 Inhibition Assay (Example A, Omnia kinase fluorescence peptide substrate assay). The note with it: TYK2 Enzyme IC50 1 mM ATP, averaged IC50 ranges. In a few lines: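 IC50 values come from a 4-parameter logistic fit of percent-of-control data, with compounds at 2% final DMSO. Reactions held 1 nM His-tag-cleaved Tyk2 (aa 886–1187), 8 μM Omnia Y12 peptide and 1 mM ATP in pH 7.4 HEPES buffer with 10 mM MgCl2, Triton X-100 and DTT. Sox fluorescence (360/485 nm) was monitored kinetically over 45 min.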

Where [1] appears, read: JAK1 Enzyme IC50 1 mM ATP, 1 mM ATP, averaged IC50 ranges.

SMILES strings stand for the structures. pIC50: −log10 of the molar value. Read-outs that look alike come from different tables or passages of the source.

Human Tyk2 kinase domain, sequence (P29597 886-1187): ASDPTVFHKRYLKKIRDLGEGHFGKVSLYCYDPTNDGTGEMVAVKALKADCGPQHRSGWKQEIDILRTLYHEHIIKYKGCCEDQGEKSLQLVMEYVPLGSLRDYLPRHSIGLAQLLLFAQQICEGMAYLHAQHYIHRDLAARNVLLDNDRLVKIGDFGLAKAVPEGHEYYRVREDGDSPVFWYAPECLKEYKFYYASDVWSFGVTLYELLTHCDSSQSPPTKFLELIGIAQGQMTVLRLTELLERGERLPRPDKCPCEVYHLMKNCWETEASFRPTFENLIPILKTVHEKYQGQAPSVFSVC
JAK1, sequence (P23458 whole entry): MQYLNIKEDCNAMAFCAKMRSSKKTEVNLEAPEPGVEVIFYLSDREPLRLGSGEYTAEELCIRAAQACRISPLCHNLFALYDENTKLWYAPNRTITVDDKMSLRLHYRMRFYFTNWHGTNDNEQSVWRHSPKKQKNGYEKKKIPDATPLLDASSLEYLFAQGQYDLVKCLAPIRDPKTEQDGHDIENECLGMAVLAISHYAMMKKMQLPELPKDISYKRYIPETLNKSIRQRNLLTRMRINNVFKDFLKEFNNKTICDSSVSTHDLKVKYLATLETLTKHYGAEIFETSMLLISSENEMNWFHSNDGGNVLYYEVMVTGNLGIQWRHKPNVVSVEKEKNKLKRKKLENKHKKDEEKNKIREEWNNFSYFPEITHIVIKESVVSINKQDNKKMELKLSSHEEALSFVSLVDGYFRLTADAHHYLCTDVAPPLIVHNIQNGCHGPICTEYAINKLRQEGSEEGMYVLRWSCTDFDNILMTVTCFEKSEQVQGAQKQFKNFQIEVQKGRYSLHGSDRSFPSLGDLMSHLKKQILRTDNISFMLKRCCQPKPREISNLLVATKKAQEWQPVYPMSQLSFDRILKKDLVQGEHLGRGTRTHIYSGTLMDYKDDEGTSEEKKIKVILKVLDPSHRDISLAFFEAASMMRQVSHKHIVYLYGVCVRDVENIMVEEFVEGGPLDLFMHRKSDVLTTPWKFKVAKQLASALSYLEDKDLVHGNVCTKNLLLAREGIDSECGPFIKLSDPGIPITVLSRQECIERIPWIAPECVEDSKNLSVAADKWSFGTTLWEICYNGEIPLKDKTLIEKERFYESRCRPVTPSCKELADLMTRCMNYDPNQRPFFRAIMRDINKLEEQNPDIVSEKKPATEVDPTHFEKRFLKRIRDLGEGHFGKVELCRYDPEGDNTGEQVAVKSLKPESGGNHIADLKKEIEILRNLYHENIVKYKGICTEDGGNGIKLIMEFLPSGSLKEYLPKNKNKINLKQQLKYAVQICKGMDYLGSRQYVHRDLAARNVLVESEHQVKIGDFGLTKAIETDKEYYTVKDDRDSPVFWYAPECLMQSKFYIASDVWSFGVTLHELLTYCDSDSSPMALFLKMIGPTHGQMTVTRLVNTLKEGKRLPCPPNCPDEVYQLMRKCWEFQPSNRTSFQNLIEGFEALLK

Consider `CCC(CC)n1cc(-c2nc(-c3cnn(C[C@H]4COCCN4)c3)cn3nccc23)cn1` [Example 30, (S)-3-((4-(4-(1-(pentan-3-yl)-1H-pyrazol-4-yl)pyrazolo[1,5-a]pyrazin-6-yl)-1H-pyrazol-1-yl)methyl)morpholine], for which the negative-log IC50 (pIC50) (commonly −log10 of the IC50, conventionally taken in molar units) on JAK2 was 7.00 to 8.00; at JAK1 it was 6.00 to 7.00; on JAK3 it was 5.00 to 6.00; on Human Tyk2 kinase domain, 7.00 to 8.00.

For `CCC(CC)n1cc(-c2nc(-c3cnn(C4CCN(C(=O)N(C)C)CC4)c3)cn3nccc23)cn1` [Example 35, N,N-dimethyl-4-(4-(4-(1-(pentan-3-yl)-1H-pyrazol-4-yl)pyrazolo[1,5-a]pyrazin-6-yl)-1H-pyrazol-1-yl)piperidine-1-carboxamide], the pIC50 is 7.00 to 8.00 at JAK2, 6.00 to 7.00 against JAK1, 5.00 to 6.00 at JAK3 and 7.00 to 8.00 against Human Tyk2 kinase domain.

On to `CCC(CC)n1cc(-c2nc(-c3cnn(C4CN(C(=O)NC)C4)c3)cn3nccc23)cn1` [Example 39, N-methyl-3-(4-(4-(1-(pentan-3-yl)-1H-pyrazol-4-yl)pyrazolo[1,5-a]pyrazin-6-yl)-1H-pyrazol-1-yl)azetidine-1-carboxamide], for which the pIC50 on JAK2 was 7.00 to 8.00; against JAK1, 7.00 to 8.00; at JAK3, 5.00 to 6.00; on Human Tyk2 kinase domain it was 7.00 to 8.00.

With `CCC(CC)n1cc(-c2nc(-c3cnn(C4CN(C(=O)N(C)C)C4)c3)cn3nccc23)cn1` [Example 40, N,N-dimethyl-3-(4-(4-(1-(pentan-3-yl)-1H-pyrazol-4-yl)pyrazolo[1,5-a]pyrazin-6-yl)-1H-pyrazol-1-yl)azetidine-1-carboxamide], the pIC50 was 7.00 to 8.00 on JAK2, 6.00 to 7.00 at JAK1, 5.00 to 6.00 against JAK3 and 7.00 to 8.00 at Human Tyk2 kinase domain.

Consider `CCC(CC)n1cc(-c2nc(-c3cnn(C4CN(P(=O)(N(C)C)N(C)C)C4)c3)cn3nccc23)cn1` [Example 41, Bis-N,N-dimethyl-P-(3-(4-(4-(1-(pentan-3-yl)-1H-pyrazol-4-yl)pyrazolo[1,5-a]pyrazin-6-yl)-1H-pyrazol-1-yl)azetidin-1-yl)phosphonic amide], for which the negative-log IC50 (pIC50) was 7.00 to 8.00 against JAK2, 6.00 to 7.00 at JAK1, 5.00 to 6.00 at JAK3 and 7.00 to 8.00 against Human Tyk2 kinase domain.

Take `CCC(CC)n1cc(-c2nc(-c3cnn(C4CN(C(=O)C(C)C)C4)c3)cn3nccc23)cn1` [Example 42, 2-methyl-1-(3-(4-(4-(1-(pentan-3-yl)-1H-pyrazol-4-yl)pyrazolo[1,5-a]pyrazin-6-yl)-1H-pyrazol-1-yl)azetidin-1-yl)propan-1-one]: the negative logarithm of the IC50 (pIC50) is 7.00 to 8.00 against JAK2, 5.00 to 6.00 at JAK1, 5.00 to 6.00 against JAK3 and 7.00 to 8.00 against Human Tyk2 kinase domain.

Turning to `CCC(CC)n1cc(-c2nc(-c3cnn(C4CN(C(=O)C5CC5)C4)c3)cn3nccc23)cn1` [Example 43, cyclopropyl(3-(4-(4-(1-(pentan-3-yl)-1H-pyrazol-4-yl)pyrazolo[1,5-a]pyrazin-6-yl)-1H-pyrazol-1-yl)azetidin-l-yl)methanone], the pIC50 against JAK2 was 7.00 to 8.00; against JAK1, 5.00 to 6.00; on JAK3, 5.00 to 6.00; at Human Tyk2 kinase domain, 7.00 to 8.00.

`CCC(C(=O)O)n1cc(-c2nc(-c3cnn(C)c3)cn3nccc23)cn1` (stereo not drawn) [Example 44, 2-(4-(6-(1-methyl-1H-pyrazol-4-yl)pyrazolo[1,5-a]pyrazin-4-yl)-1H-pyrazol-1-yl)butanoic acid]: the negative-log IC50 (pIC50) is 5.00 to 6.00 against JAK2, 5.00 to 6.00 against JAK1 (setting [1]), 5.00 to 6.00 against JAK3 and 7.00 to 8.00 on Human Tyk2 kinase domain.

`CCC(CO)n1cc(-c2nc(-c3cnn(C)c3)cn3nccc23)cn1` (stereo not drawn) [Example 45, 2-(4-(6-(1-methyl-1H-pyrazol-4-yl)pyrazolo[1,5-a]pyrazin-4-yl)-1H-pyrazol-1-yl)butan-1-ol]: the negative-log IC50 (pIC50) against JAK2, on JAK1, on JAK3 and against Human Tyk2 kinase domain was 5.00 to 6.00 in each case.

Turning to `CCC(CCO)n1cc(-c2nc(-c3cnn(C)c3)cn3nccc23)cn1` (stereo not drawn) [Example 47, 3-(4-(6-(1-methyl-1H-pyrazol-4-yl)pyrazolo[1,5-a]pyrazin-4-yl)-1H-pyrazol-1-yl)pentan-1-ol], the pIC50 against JAK2, against JAK1, against JAK3 and against Human Tyk2 kinase domain was 5.00 to 6.00 in each case.

Take `Cn1cc(-c2cn3nccc3c(-c3cnn(C4(C)CCCC4)c3)n2)cn1` [Example 49, 6-(1-methyl-1H-pyrazol-4-yl)-4-(1-(1-methylcyclopentyl)-1H-pyrazol-4-yl)pyrazolo[1,5-a]pyrazine]: the pIC50 against JAK2 was 5.00 to 6.00; against JAK1, 5.00 to 6.00; at JAK3, 5.00 to 6.00; against Human Tyk2 kinase domain it was 6.00 to 7.00.

`Cn1cc(-c2cn3nccc3c(-c3cnn(C4CCCC4CO)c3)n2)cn1` (stereo not drawn) [Example 51, (2-(4-(6-(1-methyl-1H-pyrazol-4-yl)pyrazolo[1,5-a]pyrazin-4-yl)-1H-pyrazol-1-yl)cyclopentyl)methanol]: the pIC50 against JAK2 was 5.00 to 6.00; against JAK1, 5.00 to 6.00; at JAK3, 5.00 to 6.00; at Human Tyk2 kinase domain it was 6.00 to 7.00.

In the case of `CC1CCCCCC1n1cc(-c2nc(-c3cnn(C)c3)cn3nccc23)cn1` (stereo not drawn) [Example 52, 6-(1-methyl-1H-pyrazol-4-yl)-4-(1-(2-methylcycloheptyl)-1H-pyrazol-4-yl)pyrazolo[1,5-a]pyrazine], the pIC50 against JAK2 was 7.00 to 8.00; on JAK1, 6.00 to 7.00; at JAK3, 5.00 to 6.00; on Human Tyk2 kinase domain, 7.00 to 8.00.

Regarding `Cn1cc(-c2cn3nccc3c(-c3cnn(C4CCCC4O)c3)n2)cn1` (stereo not drawn) [Example 53, 2-(4-(6-(1-methyl-1H-pyrazol-4-yl)pyrazolo[1,5-a]pyrazin-4-yl)-1H-pyrazol-1-yl)cyclopentanol], the pIC50 on JAK2 was 6.00 to 7.00; at JAK1, 5.00 to 6.00; on JAK3 it was 5.00 to 6.00; against Human Tyk2 kinase domain, 6.00 to 7.00.

For the compound `CCC(CC)n1cc(-c2nc(-c3cnn(C[C@@H](O)CO)c3)cn3nccc23)cn1` [Example 54, (R)-3-(4-(4-(1-(pentan-3-yl)-1H-pyrazol-4-yl)pyrazolo[1,5-a]pyrazin-6-yl)-1H-pyrazol-1-yl)propane-1,2-diol], the pIC50 on JAK2 is 7.00 to 8.00; on JAK1 (setting [1]) it was 6.00 to 7.00; against JAK3, 5.00 to 6.00; against Human Tyk2 kinase domain, 7.00 to 8.00.

Take `CCC(CC)n1cc(-c2nc(-c3cnn(C[C@H](O)CO)c3)cn3nccc23)cn1` [Example 55, (S)-3-(4-(4-(1-(pentan-3-yl)-1H-pyrazol-4-yl)pyrazolor[1,5-a]pyrazin-6-yl)-1H-pyrazol-1-yl)propane-1,2-diol]: the pIC50 is 6.00 to 7.00 at JAK2, 6.00 to 7.00 against JAK1 (setting [1]), 5.00 to 6.00 against JAK3 and 7.00 to 8.00 against Human Tyk2 kinase domain.

Regarding `CCC(CC)n1cc(-c2nc(-c3cnn(C[C@H](O)C(C)(C)O)c3)cn3nccc23)cn1` [Example 56, (S)-3-methyl-1-(4-(4-(1-(pentan-3-yl)-1H-pyrazol-4-yl)pyrazolo[1,5-a]pyrazin-6-yl)-1H-pyrazol-1-yl)butane-2,3-diol], the pIC50 is 7.00 to 8.00 against JAK2, 5.00 to 6.00 against JAK1, 5.00 to 6.00 against JAK3 and 7.00 to 8.00 against Human Tyk2 kinase domain.

Consider `CCC(CC)n1cc(-c2nc(-c3cnn(C[C@@H](O)C(C)(C)O)c3)cn3nccc23)cn1` [Example 57, (R)-3-methyl-1-(4-(4-(1-(pentan-3-yl)-1H-pyrazol-4-yl)pyrazolo[1,5-a]pyrazin-6-yl)-1H-pyrazol-1-yl)butane-2,3-diol], for which the pIC50 on JAK2 was 7.00 to 8.00; against JAK1, 6.00 to 7.00; at JAK3 it was 5.00 to 6.00; at Human Tyk2 kinase domain it was 7.00 to 8.00.

In the case of `CCC(CC)n1cc(-c2nc(-c3cnn(CC(O)CO)c3)cn3nccc23)cn1` (stereo not drawn) [Example 58, 3-(4-(4-(1-(pentan-3-yl)-1H-pyrazol-4-yl)pyrazolo[1,5-a]pyrazin-6-yl)-1H-pyrazol-1-yl)propane-1,2-diol], the pIC50 at JAK2 was 7.00 to 8.00; on JAK1 (setting [1]) it was 6.00 to 7.00; against JAK3, 5.00 to 6.00; against Human Tyk2 kinase domain, 7.00 to 8.00.

Regarding `CCC(CC)n1cc(-c2nc(-c3cnn(C[C@@H](O)[C@@H](C)O)c3)cn3nccc23)cn1` [Example 59, (2R,3R)-1-(4-(4-(1-(pentan-3-yl)-1H-pyrazol-4-yl)pyrazolo[1,5-a]pyrazin-6-yl)-1H-pyrazol-l-yl)butane-2,3-diol], the pIC50 against JAK2 was 7.00 to 8.00; at JAK1 (setting [1]) it was 6.00 to 7.00; on JAK3 it was 5.00 to 6.00; at Human Tyk2 kinase domain, 7.00 to 8.00.

With `CCC(CC)n1cc(-c2nc(-c3cnn(CC(C)(O)CO)c3)cn3nccc23)cn1` (stereo not drawn) [Example 60, 2-methyl-3-(4-(4-(1-(pentan-3-yl)-1H-pyrazol-4-yl)pyrazolo[1,5-a]pyrazin-6-yl)-1H-pyrazol-1-yl)propane-1,2-diol], the pIC50 was 7.00 to 8.00 at JAK2, 5.00 to 6.00 against JAK1, 5.00 to 6.00 on JAK3 and 7.00 to 8.00 on Human Tyk2 kinase domain.
